SMILES strings stand for the structures.

This passage reports TGIR results from ChEMBL document CHEMBL1128864, “Antitumor activities of -, -monogalactosylceramides and four diastereomers of an -galactosylceramide” (1995).

What all share (type): functional
In assay [1] the test system is Mus musculus. Put plainly: Percent of tumor growth inhibition ratio (TGIR)of the compound administered intraperitoneally at dose 100 ug/kg(on day 1) in subcutaneously infected BDF1 mice on day 20.
Assay [2] deals with Mus musculus. The assay is described as follows: Percent of tumor growth inhibition ratio (TGIR)of the compound administered intravenously at dose 5 mg/kg (on day10, 14, 18 ) in subcutaneously infected BDF1 mice on day 20. The settings on record: route intravenous.
In assay [3] the test system is Mus musculus. Put plainly: Percent of tumor growth inhibition ratio (TGIR)of the compound administered intravenously at dose 5 mg/kg (on day 1,5,9) in subcutaneously infected BDF1 mice on day 8. The settings on record: route intravenous.
The subject of assay [4] is Mus musculus. The assay is described as follows: Percent of tumor growth inhibition ratio (TGIR)of the compound administered intraperitoneally at dose 100 ug/kg(on day 1) in subcutaneously infected BDF1 mice on day 12.
Assay [5] has as its system Mus musculus. Put plainly: Percent of tumor growth inhibition ratio (TGIR)of the compound administered intravenously at dose 5 mg/kg (on day 10, 14, 18 ) in subcutaneously infected BDF1 mice on day 16. Conditions: route intravenous.
The subject of assay [6] is Mus musculus. The assay is described as follows: Percent of tumor growth inhibition ratio (TGIR)of the compound administered intravenously at dose 5 mg/kg (on day 1,5,9) in subcutaneously infected BDF1 mice on day 20. The settings on record: route intravenous.
Assay [7] relates to Mus musculus. Put plainly: Percent of tumor growth inhibition ratio (TGIR)of the compound administered intravenously at dose 5 mg/kg (on day 1) in subcutaneously infected BDF1 mice on day 11. The settings on record: route intravenous.
The subject of assay [8] is Mus musculus. The assay is described as follows: Percent of tumor growth inhibition ratio (TGIR)of the compound administered intravenously at dose 5 mg/kg (on day1,5,9) in subcutaneously infected BDF1 mice on day 16. The settings on record: route intravenous.
Assay [9] has as its system Mus musculus. Put plainly: Percent of tumor growth inhibition ratio (TGIR)of the compound administered intravenously at dose 5 mg/kg (on day 1) in subcutaneously infected BDF1 mice on day 20. The settings on record: route intravenous.
The test system of assay [10] is Mus musculus. Put plainly: Percent of tumor growth inhibition ratio (TGIR)of the compound administered intravenously at dose 5 mg/kg (on day 1) in subcutaneously infected BDF1 mice on day 22. Conditions: route intravenous.
Assay [11] relates to Mus musculus. The assay is described as follows: Percent of tumor growth inhibition ratio (TGIR)of the compound administered intraperitoneally at dose 100 ug/kg(on day 1) in subcutaneously infected BDF1 mice on day 13.
Assay [12] has as its system Mus musculus. Put plainly: Percent of tumor growth inhibition ratio (TGIR)of the compound administered intraperitoneally at dose 5 mg/kg (on day 7, 11,15) in subcutaneously infected BDF1 mice on day 16. Conditions: route subcutaneous.
Assay [13] deals with Mus musculus. Put plainly: Percent of tumor growth inhibition ratio (TGIR)of the compound administered intravenously at dose 100 ug/kg(on day 7, 11,15) in subcutaneously infected BDF1 mice on day 16.
The test system of assay [14] is Mus musculus. Put plainly: Percent of tumor growth inhibition ratio (TGIR)of the compound administered intravenously at dose 5 mg/kg (on day 1,5,9) in subcutaneously infected BDF1 mice on day 12. The settings on record: route intravenous.
In assay [15] the test system is Mus musculus. Put plainly: Percent of tumor growth inhibition ratio (TGIR)of the compound administered intraperitoneally at dose 5 mg/kg (on day 7, 11,15) in subcutaneously infected BDF1 mice on day 9. Conditions: route subcutaneous.
Assay [16] relates to Mus musculus. The assay is described as follows: Percent of tumor growth inhibition ratio (TGIR)of the compound administered intravenously at dose 5 mg/kg (on day 10, 14, 18 ) in subcutaneously infected BDF1 mice on day 12. The settings on record: route intravenous.
Assay [17] concerns Mus musculus. The assay is described as follows: Percent of tumor growth inhibition ratio (TGIR)of the compound administered intravenously at dose 5 mg/kg (on day 1) in subcutaneously infected BDF1 mice on day 14. Conditions: route intravenous.
The test system of assay [18] is Mus musculus. The assay is described as follows: Percent of tumor growth inhibition ratio (TGIR)of the compound administered intraperitoneally at dose 5 mg/kg (on day 1) in subcutaneously infected BDF1 mice on day 10. The settings on record: route subcutaneous.
The test system of assay [19] is Mus musculus. Put plainly: Percent of tumor growth inhibition ratio (TGIR)of the compound administered intravenously at dose 5 mg/kg (on day 1) in subcutaneously infected BDF1 mice on day 18. The settings on record: route intravenous.

Take `CO[C@@]12[C@H](COC(N)=O)C3=C(C(=O)C(C)=C(N)C3=O)N1C[C@@H]1N[C@@H]12` [MITOMYCIN]: the TGIR with Mus musculus [1] amounted to 48.6%; in the assay on Mus musculus [2] it was 68.1%; with Mus musculus [3], 90%; in the assay with Mus musculus [4] it was 53.9%; in the assay on Mus musculus [5], 52.8%; in the assay on Mus musculus [6] it was 83.2%. In addition, the TGIR with Mus musculus [7] amounted to 8.6%; in the assay with Mus musculus [8], 86%; in the assay with Mus musculus [9], 75.1%; in the assay with Mus musculus [10] it was 60%; in the assay with Mus musculus [11], 85.1%; in the assay with Mus musculus [12], 59.7%. Also, the TGIR in the assay with Mus musculus [13] worked out at 80%; in the assay with Mus musculus [14], 89.7%; in the assay with Mus musculus [15] it was 35.2%; in the assay with Mus musculus [16], 38.8%; in the assay on Mus musculus [17], 29.7%; in the assay on Mus musculus [18], 80.1%. Further, the TGIR in the assay with Mus musculus [19] came out at 51.2%.
